Experimental data taken from PubChem BioAssay (NCI).
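Method: 48-hour compound exposure of cells in 96-well plates, five concentrations, linear interpolation of endpoints. Abbreviation: GI50, concentration required for 50% inhibition of growth. Definition used: TGI = concentration required for complete inhibition of growth.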

Legend:
Assay in all cases: NCI anticancer screen, dose series, 48 h
[1] = test system: CAKI-1 renal
[2] = test system: A498 renal
[3] = test system: COLO 205 colon
[4] = test system: SNB-75 CNS
[5] = test system: MDA-MB-231 breast
[6] = test system: SF-539 CNS
[7] = test system: NCI-H23 lung
[8] = test system: UO-31 renal
[9] = test system: 786-0 renal
[10] = test system: MALME-3M melanoma
[11] = test system: HOP-62 NSCLC
[12] = test system: T-47D breast
[13] = test system: OVCAR-5 ovarian
[14] = test system: BT-549 breast
[15] = test system: TK-10 renal
[16] = test system: OVCAR-4 ovarian
[17] = test system: M14 melanoma
[18] = test system: SW-620 colon
[19] = test system: RXF 393 renal
[20] = test system: UACC-62 melanoma
[21] = test system: HT29 colon
[22] = test system: HCT-15 colon
[23] = test system: MCF7 breast
[24] = test system: K-562 leukemia
[25] = test system: HOP-92 NSCLC
[26] = test system: PC-3 prostate
[27] = test system: RPMI-8226 leukemia
[28] = test system: ACHN renal
[29] = test system: OVCAR-3 ovarian
[30] = test system: KM12 colon
[31] = test system: SK-OV-3 ovarian
[32] = test system: MOLT-4 leukemia
[33] = test system: A549 NSCLC
[34] = test system: SN12C renal
[35] = test system: HCC-2998 colon
[36] = test system: SK-MEL-5 melanoma
[37] = test system: OVCAR-8 ovarian
[38] = test system: HL-60(TB) leukemia
[39] = test system: CCRF-CEM leukemia
[40] = test system: NCI-H226 lung
[41] = test system: UACC-257 melanoma
[42] = test system: NCI-H522 lung
[43] = test system: SF-268 CNS
[44] = test system: EKVX NSCLC
[45] = test system: SK-MEL-28 melanoma
[46] = test system: SK-MEL-2 melanoma
[47] = test system: HCT-116 colon
[48] = test system: NCI/ADR-RES ovarian
[49] = test system: IGROV1 ovarian
[50] = test system: SNB-19 CNS
[51] = test system: LOX IMVI melanoma
[52] = test system: U251 CNS
[53] = test system: NCI-H460 lung
[54] = test system: HS 578T breast
[55] = test system: MDA-MB-435
[56] = test system: DU-145 prostate

O=c1c2c3c(sc2n2c(CCl)nnc2n1Cc1ccccc1)CCCC3
GI50 [1]: 2.9 µM
TGI [1]: 7.79 µM
GI50 [2]: 9.17 µM
TGI [2]: 23.1 µM
GI50 [3]: 1.94 µM
TGI [3]: 4.05 µM
GI50 [4]: 4.51 µM
TGI [4]: 9.03 µM
GI50 [5]: 2.22 µM
TGI [5]: 5.23 µM
GI50 [6]: 3.24 µM
TGI [6]: 10.1 µM
GI50 [7]: 2.27 µM
TGI [7]: 8.43 µM
GI50 [8]: 1.51 µM
TGI [8]: 2.88 µM
GI50 [9]: 2.01 µM
TGI [9]: 3.75 µM
GI50 [10]: 3.48 µM
TGI [10]: 10.7 µM
GI50 [11]: 3.55 µM
TGI [11]: 7.87 µM
GI50 [12]: 2.5 µM
TGI [12]: 6.5 µM
GI50 [13]: 2.34 µM
TGI [13]: 5.23 µM
GI50 [14]: 2.41 µM
TGI [14]: 9.44 µM
GI50 [15]: 5.25 µM
TGI [15]: 10.7 µM
GI50 [16]: 2.79 µM
TGI [16]: 7.74 µM
GI50 [17]: 1.79 µM
TGI [17]: 5.43 µM
GI50 [18]: 1.76 µM
TGI [18]: 3.51 µM
GI50 [19]: 1.98 µM
TGI [19]: 4.17 µM
GI50 [20]: 1.99 µM
TGI [20]: 5.64 µM
GI50 [21]: 1.95 µM
TGI [21]: 4.05 µM
GI50 [22]: 1.86 µM
TGI [22]: 5.34 µM
GI50 [23]: 1.75 µM
TGI [23]: 4.54 µM
GI50 [24]: 2.33 µM
TGI [24]: 5.39 µM
GI50 [25]: 1.83 µM
TGI [25]: 3.8 µM
GI50 [26]: 1.85 µM
TGI [26]: 4.01 µM
GI50 [27]: 1.97 µM
TGI [27]: 5.05 µM
GI50 [28]: 1.6 µM
TGI [28]: 2.96 µM
GI50 [29]: 1.76 µM
TGI [29]: 3.21 µM
GI50 [30]: 2.39 µM
TGI [30]: 6.05 µM
GI50 [31]: 13.4 µM
TGI [31]: 48.8 µM
GI50 [32]: 3.62 µM
TGI [32]: 17.1 µM
GI50 [33]: 2.79 µM
TGI [33]: 7.3 µM
GI50 [34]: 1.62 µM
TGI [34]: 3.86 µM
GI50 [35]: 1.74 µM
TGI [35]: 3.39 µM
GI50 [36]: 2.94 µM
TGI [36]: 7.62 µM
GI50 [37]: 2.28 µM
TGI [37]: 6.19 µM
GI50 [38]: 2.16 µM
TGI [38]: > 19.8 µM
GI50 [39]: 0.434 µM
GI50 [40]: 1.74 µM
TGI [40]: 4.37 µM
GI50 [41]: 2.12 µM
TGI [41]: 4.29 µM
GI50 [42]: 1.89 µM
TGI [42]: 4.17 µM
GI50 [43]: 1.83 µM
TGI [43]: 3.72 µM
GI50 [44]: 7.96 µM
TGI [44]: 27.9 µM
GI50 [45]: 1.7 µM
TGI [45]: 3.16 µM
GI50 [46]: 1.53 µM
TGI [46]: 2.98 µM
GI50 [47]: 1.51 µM
TGI [47]: 3.13 µM
GI50 [48]: 3.84 µM
TGI [48]: > 51.1 µM
GI50 [49]: 0.0645 µM
TGI [49]: 1.53 µM
GI50 [50]: 15.8 µM
TGI [50]: 32.1 µM
GI50 [51]: 0.284 µM
TGI [51]: 1.32 µM
GI50 [52]: 1.6 µM
TGI [52]: 3.03 µM
GI50 [53]: 2.58 µM
TGI [53]: 7.98 µM
GI50 [54]: 1.92 µM
TGI [54]: 5.9 µM
GI50 [55]: 3.4 µM
TGI [55]: 11 µM
GI50 [56]: 2.45 µM
TGI [56]: 6.18 µM
